Assays:
[1] = target: T1, K^+ATP channel (Rattus norvegicus, UniProt Q09429); test: K^+ATP channel binding assay; conditions: 1.0E−05 M; read-out: % Inhibition of Control Specific Binding
T1 construct: rat cerebral; from tissue; host or cells: rat cerebral cortex

[2] = test system: chronic colitis provoked by trinitrobenzene sulphonic acid (TNBS); test: Rat model of chronic colitis provoked by TNBS over 14 days, treatment from Day 1; type: in vivo
[3] = 50 mg/kg/day p.o. from Day 1, Day 14, vs CMC group

T1 sequence (Q09429 whole entry): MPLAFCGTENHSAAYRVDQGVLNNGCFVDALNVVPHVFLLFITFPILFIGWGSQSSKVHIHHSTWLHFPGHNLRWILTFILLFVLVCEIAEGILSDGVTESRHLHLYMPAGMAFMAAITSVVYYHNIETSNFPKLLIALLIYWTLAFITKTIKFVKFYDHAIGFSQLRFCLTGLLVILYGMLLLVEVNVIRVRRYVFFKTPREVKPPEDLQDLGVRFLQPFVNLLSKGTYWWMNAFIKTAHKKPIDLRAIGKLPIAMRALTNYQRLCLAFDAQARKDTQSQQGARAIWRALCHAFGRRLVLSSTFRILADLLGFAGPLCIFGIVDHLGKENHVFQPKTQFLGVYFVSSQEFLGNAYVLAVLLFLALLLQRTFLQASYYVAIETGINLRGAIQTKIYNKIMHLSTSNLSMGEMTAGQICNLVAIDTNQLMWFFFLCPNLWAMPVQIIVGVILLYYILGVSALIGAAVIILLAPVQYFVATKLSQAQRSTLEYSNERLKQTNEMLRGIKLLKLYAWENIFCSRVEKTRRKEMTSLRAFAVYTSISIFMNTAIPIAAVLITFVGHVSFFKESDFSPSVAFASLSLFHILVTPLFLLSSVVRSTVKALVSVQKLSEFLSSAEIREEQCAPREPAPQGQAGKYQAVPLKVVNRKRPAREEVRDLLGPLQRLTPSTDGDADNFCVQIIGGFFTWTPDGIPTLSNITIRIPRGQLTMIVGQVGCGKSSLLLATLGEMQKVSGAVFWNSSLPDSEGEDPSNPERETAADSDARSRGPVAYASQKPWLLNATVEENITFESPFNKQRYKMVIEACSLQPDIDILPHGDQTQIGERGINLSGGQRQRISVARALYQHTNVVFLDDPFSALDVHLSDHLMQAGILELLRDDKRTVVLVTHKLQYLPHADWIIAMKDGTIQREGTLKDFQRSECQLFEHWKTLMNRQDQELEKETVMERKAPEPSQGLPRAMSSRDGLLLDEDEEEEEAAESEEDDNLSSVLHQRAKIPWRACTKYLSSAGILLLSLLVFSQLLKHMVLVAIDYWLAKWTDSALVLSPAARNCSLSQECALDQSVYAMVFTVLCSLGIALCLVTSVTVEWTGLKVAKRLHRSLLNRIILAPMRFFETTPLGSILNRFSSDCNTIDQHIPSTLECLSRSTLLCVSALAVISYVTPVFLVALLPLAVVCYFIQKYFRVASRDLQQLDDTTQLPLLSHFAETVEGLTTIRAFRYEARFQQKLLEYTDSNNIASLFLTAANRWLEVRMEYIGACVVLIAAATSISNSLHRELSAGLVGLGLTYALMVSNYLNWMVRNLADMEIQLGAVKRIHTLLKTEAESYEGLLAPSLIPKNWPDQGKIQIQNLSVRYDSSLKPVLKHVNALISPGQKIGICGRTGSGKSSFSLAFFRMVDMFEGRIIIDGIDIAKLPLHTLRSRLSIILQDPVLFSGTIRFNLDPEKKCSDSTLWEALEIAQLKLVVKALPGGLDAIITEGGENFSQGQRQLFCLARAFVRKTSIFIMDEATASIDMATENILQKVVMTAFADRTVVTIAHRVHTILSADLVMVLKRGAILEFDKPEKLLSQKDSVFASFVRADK
T1 sequence (P70673 whole entry partner): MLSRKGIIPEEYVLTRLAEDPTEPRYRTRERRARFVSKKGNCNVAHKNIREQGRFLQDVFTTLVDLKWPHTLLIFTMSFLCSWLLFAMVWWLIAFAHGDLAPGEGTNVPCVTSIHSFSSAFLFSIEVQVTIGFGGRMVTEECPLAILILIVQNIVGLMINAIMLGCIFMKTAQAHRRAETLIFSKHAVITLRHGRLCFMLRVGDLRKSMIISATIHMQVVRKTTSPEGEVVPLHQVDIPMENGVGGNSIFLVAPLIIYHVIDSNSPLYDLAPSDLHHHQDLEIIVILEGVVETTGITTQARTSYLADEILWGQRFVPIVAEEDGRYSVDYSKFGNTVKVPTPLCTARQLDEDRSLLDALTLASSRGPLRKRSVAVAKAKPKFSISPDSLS

SMILES | inhibition at 10 µM [1] [%] | macroscopic Damage Score ([2]; 50 mg/kg/day p.o. from Day 1, Day 14) | reduction in colon weight [2, 3] | reduction in colonic MPO activity [2, 3] | reduction in colonic TNF-α levels [2, 3] | reduction in colonic lesion area (% of the total area measured) [2, 3] | attenuation of TNBS-induced fall in body weight (% change of body weight at Day −1) ([2]; 50 mg/kg/day p.o. in divided doses from Day 1, over 14 days, vs CMC group)
N#Cc1ccc2c(ccn2CCCCCB(O)O)c1 [Example 20, 5-(5-cyano-1H-indol-1-yl)pentylboronic acid] | 25 |  |  |  |  |  | 
O=C(O)c1cc(/N=N/c2ccc(S(=O)(=O)Nc3ccccn3)cc2)ccc1O [sulfasalazine, reference compound] |  | reduced the damage score | significant (P<0.05) reduction in colon weight | significantly (P<0.001) reduced the elevated colonic levels of MPO | significantly reduced the elevated colonic levels of TNF-α | significantly (P<0.001) reduced the extent of macroscopic injury | reached statistical significance compared with the CMC challenged group on at Day 2, 3, 6 and 7
